We go through 4 compounds from US6436631B1, “Comparative phenotype analysis for assessment of biologically active compounds such as antimicrobials” (priority 2000, dated 2002).

Experiment [1] concerns Saccharomyces cerevisiae (BY4741). Briefly: EA MicroPlate nutrient stimulation test without methionine (iodo-nitro-tetrazolium violet reduction). The conditions noted are these: 30° C., 2 days, visual. Type of experiment: cell-based. How it is done:
In this Example, the response of a yeast to various compounds was tested. The yeast used in these experiments was Saccharomyces cerevisiae (BY4741, obtained from Dr. Mark Johnston, Washington University, St. Louis, Mo.). The genotype of this strain was indicated as being Mat a (i.e., mating type “a”), ura-, his-, leu-, and met-. In these experiments, the ability of this strain to grow in a culture medium without methionine was investigated. Methionine interferes with the ability to test this organism for its utilization of other potential sulfur sources (i.e., if methionine is added to a culture medium the organism preferentially uses it as a sulfur source). The yeast was grown for 48 hours at 30° C. on R2A agar medium (Acumedia). Cells were removed from the agar surface with a sterile cotton swab and suspended at a cell density of 65% transmittance (as read using a BiologTM turbidimeter) in an inoculating fluid containing 50 mM glucose, 0.15 mM uracil, 0.15 mM L-histidine, 0.15 mM L-leucine, 0.15 mM MgCl2, 1.0 mM CaCl2, 2.0 mM NaCl, 1.0 mM KCl, 3.0 mM NH4Cl, 1.0 mM NaH2PO4, 0.1 mM Na2SO4, 0.01% iodo-nitro-tetrazolium violet, 0.01% phytagel (gellan gum), 0.03% pluronic F-68; the pH was adjusted to 6.0. The cell suspension (100 μl/well) was then used to inoculate a BiologTM EA MicroPlateTM, which tests the ability of a cell to be stimulated by a set of 95 different nutrients. The nutrients included within the microarray were: […] One well (A-1) contains no nutrients and is used as a reference (i.e., control) well. After inoculation, the microarray was incubated at 30° C. for 2 days and visually observed.

Experiment [2] concerns E. coli (MG1655). Briefly: BAC combination (synergy/antagonism) testing in ES1, ES2 and ES3 MicroPlate sensitivity panels, tetrazolium violet. Type of experiment: cell-based. The conditions noted are these: in the presence of 10 μg/ml vancomycin; vancomycin wells at 10, 20, 40 and 80 μg/ml. How it is done: In this Example, the susceptibility of E. coli (MG1655) was tested in the presence of vancomycin (10 μg/ml) or sulfamethoxazole (235 μg/ml) in microarrays containing various additional compounds. The microarrays were present in three Biolog™ sensitivity test panels, referred to as ES1, ES2 and ES3 MicroPlates™. The organisms were added to a sterile aqueous suspension containing 0.40% NaCl, 0.03% pluronic F68, 0.01% phytagel, and 0.01% tetrazolium violet, to a cell density of 85% transmittance (as measured using a BiologTm turbidimeter). The BAC to be tested was added to the suspension just prior to inoculating the organisms (100 μl/well) into the wells of the microarrays. The wells of these ES MicroPlates™ contained a basal broth medium consisting of tryptone (2 g/L), yeast extract (1 g/L), and NaCl (1 g/L). […]

For experiment [3], the system named is vancomycin-intermediate S. aureus isolates (VISA). To be noted: VISA isolates identified since 1996 in Europe, Asia and the U.S.; cited from earlier work.

Structures are written as SMILES.

`Cc1ncc(CO)c(CO)c1O` [pyridoxine]: the “stimulation of growth/respiration (pink color) in medium without methionine” value in experiment [1] (pyridoxine well (0.25 μM)) is on record as “increased pink color”.

Take `N[C@@H](CCC(=O)N[C@@H](CS)C(=O)NCC(=O)O)C(=O)O` [glutathione]: in experiment [1] (glutathione well (reduced form; 100 μM)), the “stimulation of growth/respiration (pink color) in medium without methionine” value is recorded as “increased pink color”.

`CSCC[C@H](N)C(=O)O` [L-methionine]: the “stimulation of growth/respiration (pink color) in medium without methionine” value in experiment [1] (L-methionine well (25 μM)) is listed as “increased pink color”.

In the case of `CN[C@H](CC(C)C)C(=O)N[C@H]1C(=O)N[C@@H](CC(N)=O)C(=O)N[C@H]2C(=O)N[C@H]3C(=O)N[C@H](C(=O)N[C@H](C(=O)O)c4cc(O)cc(O)c4-c4cc3ccc4O)[C@H](O)c3ccc(c(Cl)c3)Oc3cc2cc(c3O[C@@H]2O[C@H](CO)[C@@H](O)[C@H](O)[C@H]2O[C@H]2C[C@](C)(N)[C@H](O)[C@H](C)O2)Oc2ccc(cc2Cl)[C@H]1O` [vancomycin], in experiment [2], the “change of sensitivity of E. coli strain to panel compound” value is given as “transient increased sensitivity”. Further, the “vancomycin minimum inhibitory concentration [MIC]” value in experiment [3] was 8 to 16 µg/mL.
